Legend:
[1] = tested on: 3T3 cells with MYCC WT, Q37del or S146L introduced (comparative control GFP or KRASG12D); experiment: Drug sensitivity evaluation by MANO method, 3T3 cells with cancer-related genes introduced; format: cell-based, mouse; conditions: versus GFP or KRASG12D
Method: The present evaluation was carried out as follows with a conventional procedure of the MANO method described in International Publication No. WO 2018/181863.
HEK (Human Embryonic Kidney) 293 cells and mouse 3T3 fibroblasts were obtained from ATCC (American Type Culture Collection), and maintained with Dulbecco's modified Eagle's medium F-12 (DMEM-F12) supplemented with 10% FBS (both from Thermo Fisher Scientific, Walthman, MA). […]
The recombinant plasmid prepared as above was introduced into HEK293 cells together with a packaging plasmid (Takara Bio Inc., Shiga, Japan), giving recombinant retroviral particles. […] The transformation of the cells was evaluated by phase-contrast microscopy or staining with Giemsa solution. […]
The PCR product after amplification was purified with AMPurebeads (Beckman Coulter, Inc., Brea, CA). […] The quality of the library was evaluated with a Qubit 2.0 Fluorometer (Thermo Fisher Scientific) and an Agilent2200 Tape Station system. The library was sequenced by using an Illumina MiSeq (300 cycles) with a Reagent Kit V2 to produce paired-end reads of 150 bp. These sequence reads included the following sequence containing the barcode sequence: 5′-[…]-3′ (wherein N represents any nucleotide) and the complementary sequence. The amount of each mutant was estimated by counting the number of reads for the barcode sequence. […]

[2] = tested on: human-cancer-patient-derived tumors grouped by MYCC CNV; experiment: Mouse subcutaneous transplantation models with human-cancer-patient-derived tumors, mean over models; format: in vivo; conditions: 25 mg/kg
Description: Among mouse subcutaneous transplantation models with different human-cancer-patient-derived tumors, which had been established by National Cancer Center Research Institute, seven models in total with five cancer species of ovarian cancer, lung cancer, gastric cancer, breast cancer, and large intestine cancer, were used for examination in the present test. For these models, results of measurement of MYCC gene amplification have been obtained by National Cancer Center Research Institute.
A tumor piece in the form of a 2- to 3-mm cube was subcutaneously transplanted into the abdomen of each 6- to 11-week-old female NOG mouse. Calipers were used in measuring tumor volume, which was calculated from the calculation formula: tumor volume=(tumor major axis×tumor minor axis×tumor minor axis)/2. When the tumor volumes reached approximately 140 to 230 mm^3, the mice were grouped into two groups each consisting of two to four mice. Compound A was orally administered in an intermittent manner according to a schedule in which a twice-daily dose of 25 mg/kg was administered twice a week for 14 or 28 days. To a control group, 0.5% methylcellulose solution was orally administered. After the grouping, measurement of tumor volume was performed twice a week. T/C (%) on day 14 or 28 was used as an index of antitumor effect.

[3] = tested on: mouse-derived tumor BTG-R502 having MMTV-HRAS; experiment: Mouse subcutaneous transplantation model, MMTV-HRAS; format: in vivo; conditions: twice a week, day 14
Method: A tumor piece of the mouse-derived tumor BTG-M605 having MMTV-MYCC or the mouse-derived tumor BTG-R502 having MMTV-HRAS (both from Shanghai Medicilon Inc.) was subcutaneously transplanted into the abdomen of each female nude mouse. Calipers were used in measuring tumor volume, which was calculated from the calculation formula: tumor volume=(tumor major axis×tumor minor axis×tumor minor axis)/2. When the tumor volumes reached approximately 180 mm^3, the mice were grouped into four groups each consisting of eight mice. Compound A was orally administered in an intermittent manner according to a schedule in which a twice-daily dose of 12.5, 25, or 50 mg/kg was administered twice a week (on days 0, 4, 7, and 11) for 14 days. To a control group, 0.5% methylcellulose solution was orally administered. After the grouping, measurement of tumor volume was performed twice a week. T/C (%) on day 14 was used as an index of antitumor effect.

COc1ncnn2ccc(-c3cnc4nc(C)n(Cc5nnc([C@@H](C)F)o5)c4c3)c12 [compound A]
growth-inhibitory effect (IC90 lower than comparative control) [1]: particularly strong growth-inhibitory effect
mean T/C ([2]; four models with amplification of the MYCC gene (MYCC CNV>2)): −44.1%
mean T/C ([2]; three models without c-Myc gene amplification (MYCC CNV=2)): −21.3%
T/C(%) ([3]; oral 12.5 mg/kg twice daily): 71.1%
T/C(%) ([3]; oral 25 mg/kg twice daily): 54.4%
T/C(%) ([3]; oral 50 mg/kg twice daily): 14.4%

Source: patent US20260108526A1, “BIOMARKER FOR TREATMENT OF SOLID CANCER WITH IMIDAZO[4,5-b]PYRIDINE DERIVATIVE” (CHORDIA THERAPEUTICS INC., priority 2022, published 2026)
